Experimental data as given in article PMC5865166, “MultiBacMam Bimolecular Fluorescence Complementation (BiFC) tool-kit identifies new small-molecule inhibitors of the CDK5-p25 protein-protein interaction (PPI)” (Scientific Reports, 2018).

Legend:
U2OS cells = test: Total cell number / cytotoxicity in BiFC experiments; format: cell-based; details: prohibited increasing the compound concentration to above 13 µM
Description: (§1) Experiments were carried out in sterile, black clear-bottom 384 well plates (Cell carrier™ Perkin Elmer). U2OS cells were seed at density of cells 5 × 10^4 cells/well. After 3 hours, attached cells were transduced with 20 µl/well of viral stock dilution in PBS (Gibco) at multiplicity of infection (MOI) of 500 MOI. After were centrifuged during 30′ at 1500 rpm. Then plates were incubated at 37 °C during 5 hours. Thereafter the virus solution was replaced with 40 ul of complete growth medium containing 3 mM sodium butyrate (ABCR) with or without compound depending of the experiment. Cells were incubated for 16 hours at 37 °C with 5% of CO2. Finally plates were fixed with 4% paraformaldehyde (PFA) and stained with 5 µM Hoechst 33342 (Sigma-Aldrich). After 10 minutes of incubation at room temperature, plates were washed with PBS (GiBCO) and stored at 4 °C until imaging. For the immunostaining against p25 cells were permeabilized and stained with PBS, BSA 0.2% and Triton-X 100 0.5% and p35 (C-19) antibody from Santa Cruz Biotechnology (diluted 1:100 and incubated at 4 °C o/n). Then, the plates were incubated for 2 hrs at 37 °C with a donkey anti-rabbit conjugated with the alexa fluor 647 secondary antibody (Invitrogen). Finally plates were washed with PBS and stored at 4 °C until imaging.
Supplementary Figure S2. Total cell number in BiFC experiments. […]

CDK5-p25 PPI = biological target: T1, CDK5-p25 PPI (Homo sapiens, UniProt Q00535+Q15078, D144N); test: MultiBacMam BiFC assay of CDK5-p25 PPI in transduced U2OS cells (VN-CDK5(D144N)/VC-p25); details: mammalian cell-based BiFC assay, versus published yeast-based data
T1 construct: The cleavage of p35 by the protease calpain generates p25; expressed in transfected cells; host or cells: U2OS cells transduced with MultiBacMam baculovirus
T1 sequence (Q00535 whole entry D144N): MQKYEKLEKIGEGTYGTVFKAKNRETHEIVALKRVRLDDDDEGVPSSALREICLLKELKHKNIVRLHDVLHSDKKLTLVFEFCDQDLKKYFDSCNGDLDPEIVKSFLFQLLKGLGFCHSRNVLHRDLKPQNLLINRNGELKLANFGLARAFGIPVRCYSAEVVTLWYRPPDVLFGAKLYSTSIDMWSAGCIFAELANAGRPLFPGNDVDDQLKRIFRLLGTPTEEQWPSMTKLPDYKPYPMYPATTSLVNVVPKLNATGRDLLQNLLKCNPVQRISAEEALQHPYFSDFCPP
T1 sequence (Q15078 99-307 limits assumed): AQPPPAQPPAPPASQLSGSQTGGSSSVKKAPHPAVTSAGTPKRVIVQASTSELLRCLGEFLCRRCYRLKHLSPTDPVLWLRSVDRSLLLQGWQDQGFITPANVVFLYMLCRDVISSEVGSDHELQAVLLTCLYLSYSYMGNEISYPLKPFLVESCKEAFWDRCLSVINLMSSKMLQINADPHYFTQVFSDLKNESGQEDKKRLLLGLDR
Description: as §1, with “Then, the plates were incubated for 2 hrs at 37 °C with a donkey anti-rabbit conjugated with the alexa fluor 647 secondary antibody (Invitrogen). Finally plates were washed with PBS and stored at 4 °C until imaging.” left out
(§2) Cells were transduced or transfected and fixed as described above. Cells were stored in PBS until automated fluorescence microscopy analysis with Opera. Fluorescence images were acquired using the Opera QEHS reader (Perkin-Elmer) using a 20x objective. […]

Tau dimerization = test: Tau BiFC counter assay in transduced U2OS cells (VN-TAU/VC-TAU); format: cell-based; details: counter screen, 16h treatment; CPDs even at high concentration
Description: as §1, with “For the immunostaining against p25 cells were permeabilized and stained with PBS, BSA 0.2% and Triton-X 100 0.5% and p35 (C-19) antibody from Santa Cruz Biotechnology (diluted 1:100 and incubated at 4 °C o/n). Then, the plates were incubated for 2 hrs at 37 °C with a donkey anti-rabbit conjugated with the alexa fluor 647 secondary antibody (Invitrogen). Finally plates were washed with PBS and stored at 4 °C until imaging.” left out
as §2
(§3) Supplementary Figure S3. […] Then cells were treated with indicated amounts of compounds for 16h and percentage of BiFC positive cells was determined by High Content image analysis.

MLKL-RIPK3 PPI = biological target: T2, MLKL-RIPK3 PPI (Homo sapiens, UniProt Q8NB16+Q9Y572); test: MLKL-RIPK3 BiFC counter assay in transduced U2OS cells (VN-MLKL/VC-RIPK3); format: cell-based; details: counter screen, 16h treatment; CPDs even at high concentration
T2 construct: expressed in transfected cells; host or cells: U2OS cells transduced with MultiBacMam baculovirus
T2 sequence (Q8NB16 whole entry): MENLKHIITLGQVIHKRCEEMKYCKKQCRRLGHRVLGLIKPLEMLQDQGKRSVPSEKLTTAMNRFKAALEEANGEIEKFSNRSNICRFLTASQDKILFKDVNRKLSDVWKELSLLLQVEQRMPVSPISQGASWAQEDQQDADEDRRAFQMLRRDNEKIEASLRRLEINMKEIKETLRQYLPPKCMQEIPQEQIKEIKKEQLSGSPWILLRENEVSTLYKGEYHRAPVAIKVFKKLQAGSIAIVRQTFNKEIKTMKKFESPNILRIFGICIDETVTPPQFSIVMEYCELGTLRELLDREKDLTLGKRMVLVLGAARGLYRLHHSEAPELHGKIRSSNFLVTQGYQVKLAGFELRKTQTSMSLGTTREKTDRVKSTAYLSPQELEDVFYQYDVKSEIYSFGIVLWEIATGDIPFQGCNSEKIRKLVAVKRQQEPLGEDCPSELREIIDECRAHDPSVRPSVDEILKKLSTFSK
T2 sequence (Q9Y572 whole entry): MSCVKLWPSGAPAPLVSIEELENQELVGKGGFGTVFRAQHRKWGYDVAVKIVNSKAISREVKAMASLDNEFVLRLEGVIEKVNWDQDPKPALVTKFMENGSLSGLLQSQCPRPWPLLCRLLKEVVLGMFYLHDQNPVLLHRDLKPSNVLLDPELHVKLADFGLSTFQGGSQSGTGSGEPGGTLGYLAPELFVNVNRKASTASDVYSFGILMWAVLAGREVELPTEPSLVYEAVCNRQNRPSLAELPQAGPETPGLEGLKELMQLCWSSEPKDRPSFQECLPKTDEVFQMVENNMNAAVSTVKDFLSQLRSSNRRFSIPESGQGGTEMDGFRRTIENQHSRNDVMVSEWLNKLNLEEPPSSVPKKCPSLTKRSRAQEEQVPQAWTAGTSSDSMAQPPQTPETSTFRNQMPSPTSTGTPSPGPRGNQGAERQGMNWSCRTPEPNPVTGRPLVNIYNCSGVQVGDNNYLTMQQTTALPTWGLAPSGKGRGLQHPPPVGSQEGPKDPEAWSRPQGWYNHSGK
Description: as §1, with “For the immunostaining against p25 cells were permeabilized and stained with PBS, BSA 0.2% and Triton-X 100 0.5% and p35 (C-19) antibody from Santa Cruz Biotechnology (diluted 1:100 and incubated at 4 °C o/n). Then, the plates were incubated for 2 hrs at 37 °C with a donkey anti-rabbit conjugated with the alexa fluor 647 secondary antibody (Invitrogen). Finally plates were washed with PBS and stored at 4 °C until imaging.” left out
as §2, §3

Structure (SMILES)	toxic effect on the cells (U2OS cells)	inhibitory effect on CDK5-p25 PPI (CDK5-p25 PPI)	effect on Tau dimerization (Tau dimerization)	effect on MLKL-RIPK3 PPI (MLKL-RIPK3 PPI)
C[C@@]12CCC[C@H]1[C@@H]1CC[C@H]3C[C@H](N)CC[C@]3(C)[C@H]1CC2 [3α-amino-5α-androstane]	toxic effect	did not reproduce this published data		
CC(C)CC(=O)Nc1[nH]nc2c1CN(C(=O)C1CCN(C)CC1)C2(C)C [pHA-793887]			non-specific fluorescence complementation inhibitor	non-specific fluorescence complementation inhibitor
